# Test results taken from US12509457B2, “Bicyclic nitrogen containing heterocycles as inhibitors of salt-induced kinase SIK2” (priority 2019, dated 2025).
# Read-outs that look alike come from different tables or passages of the source.
# Legend:
# Format in all cases: biochemical
# SIK3 = SIK3 (Homo sapiens, UniProt Q9Y2K2); test: SIK3 kinase assay, IMAP fluorescence polarization; conditions: 50 or 100 μM ATP; average; read-out: SIK3-AVERAGE Ki
# Src = Src (Homo sapiens, UniProt P12931); test: Src kinase assay, IMAP fluorescence polarization; conditions: 50 or 100 μM ATP; average; read-out: Src-AVERAGE Ki
# EPHA2 = EPHA2 (Homo sapiens, UniProt P29317); test: EPHA2 kinase assay, IMAP fluorescence polarization
# EPHA2, sequence (P29317 24-976): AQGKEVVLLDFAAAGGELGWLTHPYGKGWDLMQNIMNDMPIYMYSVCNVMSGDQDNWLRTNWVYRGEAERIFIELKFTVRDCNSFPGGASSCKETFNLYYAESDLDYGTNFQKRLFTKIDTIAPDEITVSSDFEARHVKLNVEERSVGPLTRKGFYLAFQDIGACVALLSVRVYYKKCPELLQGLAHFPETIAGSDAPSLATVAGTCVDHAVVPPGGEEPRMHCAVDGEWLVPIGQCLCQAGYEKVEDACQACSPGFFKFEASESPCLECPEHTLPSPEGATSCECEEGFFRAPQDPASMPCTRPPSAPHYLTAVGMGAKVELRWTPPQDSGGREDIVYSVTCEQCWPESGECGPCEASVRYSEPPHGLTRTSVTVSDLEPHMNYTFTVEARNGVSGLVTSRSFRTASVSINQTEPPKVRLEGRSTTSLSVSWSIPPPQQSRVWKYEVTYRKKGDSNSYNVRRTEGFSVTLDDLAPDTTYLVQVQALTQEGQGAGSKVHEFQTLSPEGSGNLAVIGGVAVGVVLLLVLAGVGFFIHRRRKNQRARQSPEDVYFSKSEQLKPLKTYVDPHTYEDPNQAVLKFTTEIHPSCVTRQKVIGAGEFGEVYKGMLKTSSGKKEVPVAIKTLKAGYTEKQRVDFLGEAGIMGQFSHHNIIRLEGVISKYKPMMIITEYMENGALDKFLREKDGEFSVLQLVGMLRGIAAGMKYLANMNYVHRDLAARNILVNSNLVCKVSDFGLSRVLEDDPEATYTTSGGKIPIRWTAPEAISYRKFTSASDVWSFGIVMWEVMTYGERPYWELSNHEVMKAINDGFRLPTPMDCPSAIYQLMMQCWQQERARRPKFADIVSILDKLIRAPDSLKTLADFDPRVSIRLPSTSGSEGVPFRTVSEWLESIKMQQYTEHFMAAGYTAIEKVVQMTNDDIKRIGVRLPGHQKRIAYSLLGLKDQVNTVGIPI
# SIK1 = SIK1 (Homo sapiens, UniProt P57059); test: SIK1 kinase assay, IMAP fluorescence polarization; conditions: 50 or 100 μM ATP; average; read-out: SIK1-AVERAGE Ki
# SIK1, sequence (P57059 whole entry): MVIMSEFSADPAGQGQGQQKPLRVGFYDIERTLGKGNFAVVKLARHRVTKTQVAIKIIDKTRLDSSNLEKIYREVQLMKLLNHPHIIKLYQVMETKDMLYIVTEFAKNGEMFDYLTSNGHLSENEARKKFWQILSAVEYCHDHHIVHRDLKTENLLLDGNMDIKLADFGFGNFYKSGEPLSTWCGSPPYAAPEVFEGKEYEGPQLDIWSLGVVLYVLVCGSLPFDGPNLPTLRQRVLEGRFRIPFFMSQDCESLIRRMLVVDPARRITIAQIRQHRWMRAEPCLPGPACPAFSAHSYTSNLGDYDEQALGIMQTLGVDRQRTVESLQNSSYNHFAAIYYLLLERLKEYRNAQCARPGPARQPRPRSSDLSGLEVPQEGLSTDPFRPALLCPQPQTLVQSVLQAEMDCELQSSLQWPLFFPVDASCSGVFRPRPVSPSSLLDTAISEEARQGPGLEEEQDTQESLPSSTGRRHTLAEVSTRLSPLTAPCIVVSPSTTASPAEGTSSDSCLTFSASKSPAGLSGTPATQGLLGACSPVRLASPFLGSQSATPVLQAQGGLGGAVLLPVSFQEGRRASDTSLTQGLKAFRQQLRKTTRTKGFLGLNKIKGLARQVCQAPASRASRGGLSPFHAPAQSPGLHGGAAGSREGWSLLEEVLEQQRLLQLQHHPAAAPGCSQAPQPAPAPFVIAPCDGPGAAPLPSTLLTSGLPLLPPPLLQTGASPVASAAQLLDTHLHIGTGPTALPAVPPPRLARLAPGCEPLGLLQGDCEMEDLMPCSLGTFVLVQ
# SIK2 = SIK2 (Homo sapiens, UniProt Q9H0K1); test: SIK2 kinase assay, IMAP fluorescence polarization; conditions: 50 or 100 μM ATP; average; read-out: SIK2-AVERAGE Ki
# SIK2, sequence (Q9H0K1 whole entry): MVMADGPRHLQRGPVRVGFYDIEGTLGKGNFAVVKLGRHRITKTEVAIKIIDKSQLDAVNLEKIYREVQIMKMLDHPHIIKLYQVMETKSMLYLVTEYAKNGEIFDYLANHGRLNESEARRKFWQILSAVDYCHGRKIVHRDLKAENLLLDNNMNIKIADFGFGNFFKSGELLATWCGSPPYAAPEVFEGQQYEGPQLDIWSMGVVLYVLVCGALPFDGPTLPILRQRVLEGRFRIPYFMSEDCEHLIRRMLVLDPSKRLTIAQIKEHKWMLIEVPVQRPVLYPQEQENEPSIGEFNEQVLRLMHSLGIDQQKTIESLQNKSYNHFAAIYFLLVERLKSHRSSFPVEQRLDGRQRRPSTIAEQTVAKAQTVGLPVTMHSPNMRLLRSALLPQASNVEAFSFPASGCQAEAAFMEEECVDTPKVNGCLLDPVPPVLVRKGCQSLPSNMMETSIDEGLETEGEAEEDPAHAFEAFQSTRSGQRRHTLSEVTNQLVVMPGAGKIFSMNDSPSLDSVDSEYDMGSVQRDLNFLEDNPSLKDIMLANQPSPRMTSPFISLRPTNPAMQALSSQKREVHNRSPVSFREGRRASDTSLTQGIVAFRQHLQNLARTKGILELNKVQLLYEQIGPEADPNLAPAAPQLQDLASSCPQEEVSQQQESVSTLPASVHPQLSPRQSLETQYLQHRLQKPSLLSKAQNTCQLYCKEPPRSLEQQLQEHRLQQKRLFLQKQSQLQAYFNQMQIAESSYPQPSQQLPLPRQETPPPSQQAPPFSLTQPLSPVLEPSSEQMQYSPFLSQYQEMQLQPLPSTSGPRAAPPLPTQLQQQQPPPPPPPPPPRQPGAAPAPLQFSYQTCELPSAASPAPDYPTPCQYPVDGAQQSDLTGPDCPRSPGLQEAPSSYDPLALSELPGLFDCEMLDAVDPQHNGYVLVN
# Abl = Abl (Homo sapiens, UniProt P00519); test: Abl kinase assay, IMAP fluorescence polarization; conditions: 50 or 100 μM ATP; average; read-out: Abl-AVERAGE Ki
# Abl, sequence (P00519 whole entry): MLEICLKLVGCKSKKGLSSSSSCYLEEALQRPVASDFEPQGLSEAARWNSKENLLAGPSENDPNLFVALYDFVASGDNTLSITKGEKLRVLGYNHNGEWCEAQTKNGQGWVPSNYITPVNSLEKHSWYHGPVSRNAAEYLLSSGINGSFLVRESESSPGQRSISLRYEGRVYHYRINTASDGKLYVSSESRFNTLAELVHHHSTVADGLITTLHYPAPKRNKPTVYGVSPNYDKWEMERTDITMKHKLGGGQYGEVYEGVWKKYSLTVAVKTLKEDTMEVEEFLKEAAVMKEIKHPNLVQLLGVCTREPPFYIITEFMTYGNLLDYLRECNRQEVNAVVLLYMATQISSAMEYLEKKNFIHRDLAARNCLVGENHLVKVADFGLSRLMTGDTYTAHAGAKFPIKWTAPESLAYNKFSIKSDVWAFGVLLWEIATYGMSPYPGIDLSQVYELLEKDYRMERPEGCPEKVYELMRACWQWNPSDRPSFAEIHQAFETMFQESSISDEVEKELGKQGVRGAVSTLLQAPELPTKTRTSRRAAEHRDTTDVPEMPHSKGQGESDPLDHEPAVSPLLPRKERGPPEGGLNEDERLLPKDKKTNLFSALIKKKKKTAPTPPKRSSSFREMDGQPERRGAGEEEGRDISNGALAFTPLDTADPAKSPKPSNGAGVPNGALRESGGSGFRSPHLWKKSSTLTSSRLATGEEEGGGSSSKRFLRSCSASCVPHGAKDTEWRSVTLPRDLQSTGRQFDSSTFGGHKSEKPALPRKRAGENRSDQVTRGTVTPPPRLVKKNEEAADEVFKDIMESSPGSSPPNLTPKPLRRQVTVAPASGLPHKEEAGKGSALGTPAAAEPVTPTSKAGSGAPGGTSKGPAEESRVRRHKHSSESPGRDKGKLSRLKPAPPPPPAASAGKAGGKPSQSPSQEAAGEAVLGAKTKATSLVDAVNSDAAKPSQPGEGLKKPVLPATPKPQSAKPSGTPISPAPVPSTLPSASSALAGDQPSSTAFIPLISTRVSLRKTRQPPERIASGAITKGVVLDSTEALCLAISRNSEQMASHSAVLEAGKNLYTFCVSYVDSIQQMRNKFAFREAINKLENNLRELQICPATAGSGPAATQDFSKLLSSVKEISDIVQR
# SIK3, sequence (Q9Y2K2 whole entry): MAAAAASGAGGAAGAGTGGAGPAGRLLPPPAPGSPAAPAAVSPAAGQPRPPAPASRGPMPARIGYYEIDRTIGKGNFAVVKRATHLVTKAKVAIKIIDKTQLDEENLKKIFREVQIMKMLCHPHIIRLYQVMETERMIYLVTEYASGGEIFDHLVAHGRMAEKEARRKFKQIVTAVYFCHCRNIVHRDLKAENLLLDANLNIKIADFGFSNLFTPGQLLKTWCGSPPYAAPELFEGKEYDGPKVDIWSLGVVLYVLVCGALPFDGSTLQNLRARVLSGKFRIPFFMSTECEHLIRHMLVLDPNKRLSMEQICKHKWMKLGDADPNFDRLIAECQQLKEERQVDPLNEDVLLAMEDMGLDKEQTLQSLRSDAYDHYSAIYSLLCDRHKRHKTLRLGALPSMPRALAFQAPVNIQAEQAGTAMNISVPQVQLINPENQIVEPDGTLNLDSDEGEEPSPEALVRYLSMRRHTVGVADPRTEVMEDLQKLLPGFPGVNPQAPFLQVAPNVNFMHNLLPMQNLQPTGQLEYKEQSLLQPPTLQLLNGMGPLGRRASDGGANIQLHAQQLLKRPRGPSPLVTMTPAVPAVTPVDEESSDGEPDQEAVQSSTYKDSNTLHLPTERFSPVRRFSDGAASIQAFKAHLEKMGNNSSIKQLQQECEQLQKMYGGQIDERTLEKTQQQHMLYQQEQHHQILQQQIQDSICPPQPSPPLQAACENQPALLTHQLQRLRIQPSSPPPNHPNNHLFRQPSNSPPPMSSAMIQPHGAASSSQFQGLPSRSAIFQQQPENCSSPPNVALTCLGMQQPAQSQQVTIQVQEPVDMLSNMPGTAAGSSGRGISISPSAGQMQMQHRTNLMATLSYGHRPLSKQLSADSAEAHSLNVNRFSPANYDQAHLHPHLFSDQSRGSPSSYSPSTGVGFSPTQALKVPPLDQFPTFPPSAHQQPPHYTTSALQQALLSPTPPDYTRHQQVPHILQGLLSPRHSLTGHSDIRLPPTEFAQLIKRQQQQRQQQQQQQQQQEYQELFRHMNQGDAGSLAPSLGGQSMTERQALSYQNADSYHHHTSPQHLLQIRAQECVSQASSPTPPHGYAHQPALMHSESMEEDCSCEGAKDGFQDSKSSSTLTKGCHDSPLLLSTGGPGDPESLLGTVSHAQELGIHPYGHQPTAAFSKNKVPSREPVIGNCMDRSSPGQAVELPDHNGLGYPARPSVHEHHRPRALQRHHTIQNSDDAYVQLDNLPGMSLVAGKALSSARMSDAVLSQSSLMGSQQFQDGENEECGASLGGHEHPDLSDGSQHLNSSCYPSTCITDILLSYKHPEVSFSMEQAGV
Structure (SMILES),Ki (SIK3),Ki (Src),"Ki (EPHA2; 50 or 100 μM ATP, average)",Ki (SIK1),Ki (SIK2),Ki (Abl),Ki (EPHA2)
"CN[C@H]1CC[C@H](N2C(=O)N(c3c(C)cccc3F)Cc3cnc(N)cc32)CC1 [Example 64, trans-7-amino-3-(2-fluoro-6-methyl-phenyl)-1-[4-(methylamino)cyclohexyl]-4H-pyrido[4,3-d]pyrimidin-2-one]",1.35 nM,39.4 nM,97.4 nM,0.733 nM,0.343 nM,25.5 nM,–
"Cc1cccc(F)c1N1Cc2cnc(N)nc2N([C@H]2CCNC2)C1=O [Example 65, 7-Amino-3-(2-fluoro-6-methyl-phenyl)-1-[(3S)-pyrrolidin-3-yl]-4H-pyrimido[4,5-d]pyrimidin-2-one]",20.8 nM,> 1000 nM,149 nM,2.8 nM,1.11 nM,> 1000 nM,–
"Cc1cccc(F)c1N1Cc2cnc(N)nc2N([C@@H]2CCNC2)C1=O [Example 67, 7-amino-3-(2-fluoro-6-methyl-phenyl)-1-[(3R)-pyrrolidin-3-yl]-4H-pyrimido[4,5-d]pyrimidin-2-one]",41.3 nM,> 10000 nM,127 nM,5.83 nM,3.15 nM,261 nM,–
"Cc1cccc(F)c1N1Cc2cnc(N)nc2N([C@@H]2CCCNCC2)C1=O [Example 68, 7-amino-1-[(4R)-azepan-4-yl]-3-(2-fluoro-6-methyl-phenyl)-4H-pyrimido[4,5-d]pyrimidin-2-one]",0.845 nM,47.7 nM,22.3 nM,0.397 nM,0.197 nM,15.3 nM,–
"Cc1cccc(F)c1N1Cc2cnc(N)nc2N([C@H]2CCCNCC2)C1=O [Example 69, 7-amino-1-[(4S)-azepan-4-yl]-3-(2-fluoro-6-methyl-phenyl)-4H-pyrimido[4,5-d]pyrimidin-2-one]",0.926 nM,44.2 nM,14.7 nM,0.407 nM,0.0997 nM,19.7 nM,–
"Cc1cccc(F)c1N1Cc2cnc(N)nc2N([C@H]2CCCCNC2)C1=O [Example 70, 7-amino-1-[(3S)-azepan-3-yl]-3-(2-fluoro-6-methyl-phenyl)-4H-pyrimido[4,5-d]pyrimidin-2-one]",5.92 nM,114 nM,73.8 nM,0.907 nM,0.278 nM,85.7 nM,–
"Cc1cccc(F)c1N1Cc2cnc(N)nc2N([C@H]2CCCNC2)C1=O [Example 71, 7-amino-3-(2-fluoro-6-methyl-phenyl)-1-[(3S)-3-piperidyl]-4H-pyrimido[4,5-d]pyrimidin-2-one]",6.28 nM,391 nM,88.5 nM,1.26 nM,0.368 nM,104 nM,–
"Cc1cccc(F)c1N1Cc2cnc(N)nc2N([C@@H]2CCCCNC2)C1=O [Example 72, 7-amino-1-[(3R)-azepan-3-yl]-3-(2-fluoro-6-methyl-phenyl)-4H-pyrimido[4,5-d]pyrimidin-2-one]",21.1 nM,50.4 nM,23.7 nM,1.93 nM,1.14 nM,19.8 nM,–
"Cc1cccc(F)c1N1Cc2cnc(N)nc2N([C@@H]2CCCNC2)C1=O [Example 73, 7-amino-3-(2-fluoro-6-methyl-phenyl)-1-[(3R)-3-piperidyl]-4H-pyrimido[4,5-d]pyrimidin-2-one]",9.92 nM,77.2 nM,56.6 nM,1.3 nM,0.94 nM,36.8 nM,–
"Cc1cccc(F)c1N1Cc2cnc(N)nc2N([C@H]2CC[C@@H](N)CC2)C1=O [Example 74, 7-amino-1-(4-aminocyclohexyl)-3-(2-fluoro-6-methyl-phenyl)-4H-pyrimido[4,5-d]pyrimidin-2-one]",1.98 nM,49 nM,16.3 nM,1.08 nM,0.356 nM,22.6 nM,–
"Cc1cccc(F)c1N1Cc2cnc(N)nc2N(C2CCCC(N)C2)C1=O (stereo not drawn) [Example 75, 7-amino-1-(3-aminocyclohexyl)-3-(2-fluoro-6-methyl-phenyl)-4H-pyrimido[4,5-d]pyrimidin-2-one]",3.04 nM,11.6 nM,9.26 nM,0.681 nM,0.209 nM,13.8 nM,–
"Cc1cccc(F)c1N1Cc2cnc(N)nc2N(C2CCC(N)C2)C1=O (stereo not drawn) [Example 76, 7-amino-1-(3-aminocyclopentyl)-3-(2-fluoro-6-methyl-phenyl)-4H-pyrimido[4,5-d]pyrimidin-2-one]",1.18 nM,29.2 nM,9.16 nM,0.612 nM,0.205 nM,4.22 nM,–
"Cc1cccc(F)c1N1Cc2cnc(N)nc2N([C@H]2CC[C@H](N)CC2)C1=O [Example 77, 7-amino-1-(4-aminocyclohexyl)-3-(2-fluoro-6-methyl-phenyl)-4H-pyrimido[4,5-d]pyrimidin-2-one]",0.739 nM,64.6 nM,17.3 nM,0.685 nM,0.222 nM,27.7 nM,–
"Cc1cccc(F)c1N1Cc2cnc(N)cc2N([C@H]2CCNC2)C1=O [Example 78, 7-amino-3-(2-fluoro-6-methyl-phenyl)-1-[(3S)-pyrrolidin-3-yl]-4H-pyrido[4,3-d]pyrimidin-2-one]",15.4 nM,> 1000 nM,> 1000 nM,1.28 nM,1.62 nM,> 1000 nM,–
"Cc1cccc(F)c1N1Cc2cnc(N)cc2N([C@H]2CCN(C)C2)C1=O [Example 79, 7-amino-3-(2-fluoro-6-methyl-phenyl)-1-[(3S)-1-methylpyrrolidin-3-yl]-4H-pyrido[4,3-d]pyrimidin-2-one]",85.4 nM,> 10000 nM,–,9.67 nM,6.5 nM,488 nM,164 nM
"Cc1cccc(F)c1N1Cc2cnc(N)cc2N([C@@H]2CCN(C)C2)C1=O [Example 80, 7-amino-3-(2-fluoro-6-methyl-phenyl)-1-[(3R)-1-methylpyrrolidin-3-yl]-4H-pyrido[4,3-d]pyrimidin-2-one]",37.9 nM,> 10000 nM,–,3.2 nM,2.12 nM,352 nM,296 nM
"Cc1cccc(F)c1N1Cc2cnc(N)cc2N([C@@H]2CCCN(C)C2)C1=O [Example 81, 7-amino-3-(2-fluoro-6-methyl-phenyl)-1-[(3R)-1-methyl-3-piperidyl]-4H-pyrido[4,3-d]pyrimidin-2-one]",5.04 nM,252 nM,45.2 nM,0.84 nM,0.522 nM,67.4 nM,–
"Cc1cccc(F)c1N1Cc2cnc(N)cc2N([C@H]2CCCN(C)C2)C1=O [Example 82, 7-amino-3-(2-fluoro-6-methyl-phenyl)-1-[(3S)-1-methyl-3-piperidyl]-4H-pyrido[4,3-d]pyrimidin-2-one]",5.89 nM,82.7 nM,54.5 nM,1 nM,0.498 nM,> 1000 nM,–
"Cc1cccc(F)c1N1Cc2cnc(N)cc2N([C@@H]2CCCN(C)CC2)C1=O [Example 84, 7-amino-3-(2-fluoro-6-methyl-phenyl)-1-[(4R)-1-methylazepan-4-yl]-4H-pyrido[4,3-d]pyrimidin-2-one]",0.302 nM,126 nM,32.5 nM,0.467 nM,0.14 nM,14.9 nM,–
"Cc1cccc(F)c1N1Cc2cnc(N)cc2N([C@H]2CCCN(C)CC2)C1=O [Example 86, 7-amino-3-(2-fluoro-6-methyl-phenyl)-1-[(4S)-1-methylazepan-4-yl]-4H-pyrido[4,3-d]pyrimidin-2-one]",6.15 nM,644 nM,502 nM,1.86 nM,0.592 nM,94.7 nM,–
